{
  "source": "PubChem BioAssay (NCI)",
  "experiment_in_all_cases": "DTP human tumour cell line panel, 384-well format",
  "key": {"SK-MEL-28 melanoma": {"system": "SK-MEL-28 melanoma"}, "ACHN renal": {"system": "ACHN renal"}, "RXF 393 renal": {"system": "RXF 393 renal"}, "TK-10 renal": {"system": "TK-10 renal"}, "OVCAR-3 ovarian": {"system": "OVCAR-3 ovarian"}, "SR leukemia": {"system": "SR leukemia"}, "T-47D breast": {"system": "T-47D breast"}, "HS 578T breast": {"system": "HS 578T breast"}, "SF-539 CNS": {"system": "SF-539 CNS"}, "OVCAR-4 ovarian": {"system": "OVCAR-4 ovarian"}, "KM12 colon": {"system": "KM12 colon"}, "SNB-75 CNS": {"system": "SNB-75 CNS"}, "NCI-H522 lung": {"system": "NCI-H522 lung"}},
  "note": "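Abbreviation: GI50, concentration required for 50% inhibition of growth. TGI marks complete inhibition of growth.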",
  "data": [
    {"smiles": "C/C=C1\\NC(=O)[C@H]2CSSCCC=C[C@H](CC(=O)N[C@H](C(C)C)C(=O)N2)OC(=O)[C@H](C(C)C)NC1=O", "values": [
      {"measurement": "GI50", "setting": "SK-MEL-28 melanoma", "result": "< 10", "unit": "nM"},
      {"measurement": "TGI", "setting": "SK-MEL-28 melanoma", "result": "< 10", "unit": "nM"},
      {"measurement": "GI50", "setting": "ACHN renal", "result": "< 11.9", "unit": "nM"},
      {"measurement": "TGI", "setting": "ACHN renal", "result": 23.3, "unit": "nM"},
      {"measurement": "GI50", "setting": "RXF 393 renal", "result": "< 10", "unit": "nM"},
      {"measurement": "TGI", "setting": "RXF 393 renal", "result": "< 10", "unit": "nM"},
      {"measurement": "GI50", "setting": "TK-10 renal", "result": "< 10", "unit": "nM"},
      {"measurement": "TGI", "setting": "TK-10 renal", "result": "< 18.1", "unit": "nM"},
      {"measurement": "GI50", "setting": "OVCAR-3 ovarian", "result": "< 10", "unit": "nM"},
      {"measurement": "TGI", "setting": "OVCAR-3 ovarian", "result": "< 10", "unit": "nM"},
      {"measurement": "GI50", "setting": "SR leukemia", "result": "< 10", "unit": "nM"},
      {"measurement": "TGI", "setting": "SR leukemia", "result": "< 10", "unit": "nM"},
      {"measurement": "GI50", "setting": "T-47D breast", "result": "< 10", "unit": "nM"},
      {"measurement": "TGI", "setting": "T-47D breast", "result": "< 10", "unit": "nM"},
      {"measurement": "GI50", "setting": "HS 578T breast", "result": "< 10", "unit": "nM"},
      {"measurement": "TGI", "setting": "HS 578T breast", "result": "< 10", "unit": "nM"},
      {"measurement": "GI50", "setting": "SF-539 CNS", "result": "< 10", "unit": "nM"},
      {"measurement": "TGI", "setting": "SF-539 CNS", "result": "< 10", "unit": "nM"},
      {"measurement": "GI50", "setting": "OVCAR-4 ovarian", "result": "< 10", "unit": "nM"},
      {"measurement": "TGI", "setting": "OVCAR-4 ovarian", "result": "< 10", "unit": "nM"},
      {"measurement": "GI50", "setting": "KM12 colon", "result": "< 10", "unit": "nM"},
      {"measurement": "TGI", "setting": "KM12 colon", "result": "< 10", "unit": "nM"},
      {"measurement": "GI50", "setting": "SNB-75 CNS", "result": "< 10", "unit": "nM"},
      {"measurement": "TGI", "setting": "SNB-75 CNS", "result": "< 10", "unit": "nM"},
      {"measurement": "GI50", "setting": "NCI-H522 lung", "result": "< 10", "unit": "nM"},
      {"measurement": "TGI", "setting": "NCI-H522 lung", "result": "< 10", "unit": "nM"}
    ]}
  ]
}
